Experimental data published in paper PMC12316891, “A bottom-up approach to find lead compounds in expansive chemical spaces” (Communications Chemistry, 2025).
Where two headings read alike, the source gives them in different places.

Legend:
[1] = molecular target: T1, His6-BRD4 (BD1) (Homo sapiens, UniProt O60885); assay: Surface plasmon resonance (SPR) single-dose screening; assay type: binding; design: key to SPR RESULT: Positive: compounds were considered as SPR hits also when their average signal was further than two standard deviations apart from the average signal of the blank samples (1% DMSO); conditions: for RUs at [10 µM]: SPR, compound 10 µM, 1% DMSO, n = 2, decimal comma; for SPR RESULT: single dose 10 µM, n = 2
T1 construct: A pET28 plasmid containing residues 44–168 of BRD4 (BD1), a 6xHis tag, a TEV protease cleavage site; made in house; host or cells: E. coli Rosetta (D3)

[2] = molecular target: T2, BRD4 (BD1) (Homo sapiens, UniProt O60885); assay: Differential scanning fluorimetry (DSF) single-dose thermal shift screening; assay type: binding; conditions: for ΔTm at 10 µM: read-out: ΔTm ºC at [10 µM]
T2 construct: A pET28 plasmid containing residues 44–168 of BRD4 (BD1), a 6xHis tag, a TEV protease cleavage site; 6xHis (N, cleaved yes); made in house; host or cells: E. coli Rosetta (D3)

[3] = molecular target: T2, BRD4 (BD1); assay: Competitive HTRF TR-FRET binding assay (displacement of acetylated histone H4 peptide); conditions: 16-point titration 0.1 nM to 10 µM, n = 2, Negative = curve could not be fitted to a sigmoidal curve; for IC50: read-out: TR-FRET IC50
Procedure: To further quantitatively characterize the DSF/SPR hits compounds obtained in the single-dose screenings, we selected HTRF TR-FRET. Specifically, we employed a competitive HTRF TR-FRET experiment to measure the compound’s capacity to displace an acetylated peptide from the binding site of BRD4 (BD1). For each molecule, a 16-point concentration curve was titrated against the peptide-BRD (BD1) complex and incubated for 1.5 h. A compound was considered a positive binder if we could fit its titration curve to a sigmoidal curve to determine its IC50. […] Compound screening was carried out in 384-well, white, round-bottom, small-volume plates (CORNING) in a final volume of 20 µL of 50 mM HEPES (pH 7.4), 50 mM NaCl, 400 mM KF, 0.5 mM CHAPS, and 0.05% BSA. […] Then, the labeled anti-His6-XL665 antibody (CisBio) (10 nM) was added to the mixture and incubated for 15 min, before the Eu3+ cryptate-conjugated streptavidin (2 nM) (CisBio) was added and incubated for 15 min. All incubations were performed at room temperature. […] Titration of (+)−JQ1 was used as a positive control for each experiment.

[4] = DSF, compound 10 µM, BRD4 (BD1) 2 µM, n = 3, decimal comma

SMILES	RUs at [10 µM] [1]	ΔTm at 10 µM [2] [°C]	ΔTm ºC at [10 µM] [2, 4]	TR-FRET IC50 (nM) [3]	SPR RESULT [1]	ΔTm at 10 µM [2, 4] [°C]	IC50 [3] [nM]
COc1cc2c(cc1-c1c(C)noc1C)ncc1[nH]c(=O)n([C@H](C)c3ccccn3)c12 [Compound 2, CC1=C(C(=NO1)C)C2=C(C=C3C(=C2)N=CC4=C3N(C(=O)N4)C(C)C5=CC=CC=N5)OC, reference compound]	95,35 ± 25,76 RUs						
Cc1sc2c(c1C)C(c1ccc(Cl)cc1)=NC(CC(=O)OC(C)(C)C)c1nnc(C)n1-2 (stereo not drawn) [Compound 3, CC1=C(SC2=C1C(=NC(C3=NN=C(N32)C)CC(=O)OC(C)(C)C)C4=CC=C(C=C4)Cl)C, reference compound]	99,15 ± 6,82 RUs	9.28					
COc1ccc(-n2c(C)nnc2SCC(=O)Nc2ccc(C)c(Cl)c2Cl)cc1 [Compound 12, COC=1C=CC(=CC1)N2C(C)=NN=C2SCC(=O)NC=3C=CC(C)=C(Cl)C3Cl]	78,35 ± 18,49 RUs		-0,57 ± 0,38 ºC	Negative	Positive		
Cn1ccnc1C1CCN(C(=O)c2nn(C)c(=O)c3ccccc23)C1 (stereo not drawn) [Compound 13, CN1C=CN=C1C2CCN(C2)C(=O)C3=NN(C)C(=O)C=4C=CC=CC34]	5,53 ± 2,74 RUs				Negative	0.45	1.46
COc1ccc(NS(=O)(=O)c2cc(C(=O)Nc3ccc4nnc(C(C)C)n4c3)ccc2F)cc1 [Compound 14, COC=1C=CC(NS(=O)(=O)C=2C=C(C=CC2F)C(=O)NC=3C=CC4=NN=C(C(C)C)N4C3)=CC1]	23,29 ± 9,67 RUs				Negative	1.94	661
COc1ccc2c(c1)N(C(=O)c1cn(C)c(=O)c3ccccc13)CC2 [Compound 15, COC=1C=CC=2CCN(C(=O)C3=CN(C)C(=O)C=4C=CC=CC34)C2C1]	28,19 ± 22,85 RUs				Negative	1.71	1010
CCCc1c(C(=O)NCc2cccc3c2OCCO3)[nH]c(C)c1C(C)=O [Compound 16, CCCC1=C(NC(C)=C1C(=O)C)C(=O)NCC=2C=CC=C3OCCOC23]	20,24 ± 10,15 RUs				Negative	-0.43	1090
COc1ccc(-n2c(C)nnc2SCC(=O)Nc2cn(C)nc2C(N)=O)cc1 [Compound 17, COC=1C=CC(=CC1)N2C(C)=NN=C2SCC(=O)NC3=CN(C)N=C3C(=O)N]	9,07 ± 0,52 RUs				Positive	1.17	192
COc1ccc(C2(NCC(=O)Nc3cc(-n4nnnc4C)ccc3F)CCOCC2)cc1 [Compound 18, COC=1C=CC(=CC1)C2(CCOCC2)NCC(=O)NC=3C=C(C=CC3F)N4N=NN=C4C]	2,91 ± 1,98 RUs				Negative	-0.7	1140
COc1ccc(-n2c(C)nnc2SCC(=O)NCc2ccc(F)c(C)c2)cc1 [Compound 19, COC=1C=CC(=CC1)N2C(C)=NN=C2SCC(=O)NCC=3C=CC(F)=C(C)C3]	33,98 ± 20,29 RUs				Negative	1.36	543
Cc1ccc(CNC(=O)c2ccc3nnc(C)c(C)c3c2)c(OC2CCOC2)c1 (stereo not drawn) [Compound 20, CC=1C=CC(CNC(=O)C=2C=CC=3N=NC(C)=C(C)C3C2)=C(OC4CCOC4)C1]	41,88 ± 12,55 RUs			Negative	Positive	2.33	
CCOc1ccc(-n2nc(Cc3ccncc3)nc2-c2cn(C)c(=O)c3ccccc23)cc1 [Compound 21, CCOC=1C=CC(=CC1)N2N=C(CC=3C=CN=CC3)N=C2C4=CN(C)C(=O)C=5C=CC=CC45]	38,73 ± 19,2 RUs				Negative	2.33	552
CCCc1c(C(=O)N2CCOC(Cn3cc(-c4ccsc4)nn3)C2)[nH]c(C)c1C(C)=O (stereo not drawn) [Compound 22, CCCC1=C(NC(C)=C1C(=O)C)C(=O)N2CCOC(CN3C=C(N=N3)C=4C=CSC4)C2]	20,06 ± 0,43 RUs				Positive	2.02	46
CC(C)=CC(=O)NCCC1CCN(C(=O)c2cn(C)c(=O)c3ccccc23)C1 (stereo not drawn) [Compound 23, CC(=CC(=O)NCCC1CCN(C1)C(=O)C2=CN(C)C(=O)C=3C=CC=CC23)C]	5,93 ± 1,05 RUs				Negative	2.61	3.44
Cc1nn(C)cc1C(=O)NC1CCC2(CC1)CCN(C(=O)c1sc3nnc(C)c(C)c3c1N)CC2 [Compound 24, CC1=NN(C)C=C1C(=O)NC2CCC3(CC2)CCN(CC3)C(=O)C=4SC=5N=NC(C)=C(C)C5C4N]	40,95 ± 7,16 RUs				Positive	2.35	1760
CCCc1c(C(=O)N2CCC(F)(F)C(CNC(=O)c3nc(C)c(C)s3)C2)[nH]c(C)c1C(C)=O (stereo not drawn) [Compound 25, CCCC1=C(NC(C)=C1C(=O)C)C(=O)N2CCC(F)(F)C(CNC(=O)C3=NC(C)=C(C)S3)C2]	22,43 ± 8,33 RUs				Negative	2.41	149
CCCc1c(C(=O)N2CCOC(CN(C)C(=O)c3cccn3C)C2)[nH]c(C)c1C(C)=O (stereo not drawn) [Compound 26, CCCC1=C(NC(C)=C1C(=O)C)C(=O)N2CCOC(CN(C)C(=O)C3=CC=CN3C)C2]	22,04 ± 8,53 RUs				Negative	2.61	1020
COc1cccc(-n2c(C)nnc2SCC(=O)NC2(CO)CCCCCCC2)c1 [Compound 27, COC=1C=CC=C(C1)N2C(C)=NN=C2SCC(=O)NC3(CO)CCCCCCC3]	28,33 ± 20,88 RUs	-0.98		Negative	Negative		
COc1ccc(-n2c(C)nnc2SCC(=O)NCC2(N)CCOCC2)cc1 [Compound 28, COC=1C=CC(=CC1)N2C(C)=NN=C2SCC(=O)NCC3(N)CCOCC3]	16,66 ± 3,56 RUs			Negative	Positive	0.36	
CC(=O)c1c(C)[nH]c(C(=O)N2CCCC(c3cn(CC4CC5CC5C4)nn3)C2)c1C (stereo not drawn) [Compound 29, CC(=O)C1=C(C)NC(C(=O)N2CCCC(C2)C3=CN(CC4CC5CC5C4)N=N3)=C1C]				Negative	Negative	-1.17	
COc1cccc(-n2c(C)nnc2SCC(=O)N2CCCN(C(=O)c3cc(F)c[nH]3)CC2)c1 [Compound 30, COC=1C=CC=C(C1)N2C(C)=NN=C2SCC(=O)N3CCCN(CC3)C(=O)C4=CC(F)=CN4]	17,68 ± 18,73 RUs			Negative	Negative	0.43	
CCn1nnc2cc(C(=O)N3CCC(CCNC(=O)c4nc(O)sc4C)C3)ccc21 (stereo not drawn) [Compound 31, CCN1N=NC=2C=C(C=CC12)C(=O)N3CCC(CCNC(=O)C=4N=C(O)SC4C)C3]	8,73 ± 4,6 RUs			Negative	Negative	0.02	
COc1cccc(-n2c(C)nnc2SCC(=O)NC2CN(C(=O)C3CCOCC3)CC23CC3)c1 (stereo not drawn) [Compound 32, COC=1C=CC=C(C1)N2C(C)=NN=C2SCC(=O)NC3CN(CC43CC4)C(=O)C5CCOCC5]	3,3 ± 1,9 RUs				Negative	0.87	386
CCCc1c(C(=O)N2CCC(Cc3cn(-c4cccc(F)c4C)nn3)C2)[nH]c(C)c1C(C)=O (stereo not drawn) [Compound 33, CCCC1=C(NC(C)=C1C(=O)C)C(=O)N2CCC(CC3=CN(N=N3)C=4C=CC=C(F)C4C)C2]	8,85 ± 1,09 RUs			Negative	Negative	0.1	
Cc1cc(C)n2nc(NC(=O)N3CCC(F)(F)C4(CCOC4)C3)nc2n1 (stereo not drawn) [Compound 68, CC=1C=C(C)N2N=C(NC(=O)N3CCC(F)(F)C4(CCOC4)C3)N=C2N1]	9,66 ± 4,71 RUs				Negative	1.11	
